The target in assay [1] is T1, IRAK4 (Homo sapiens, UniProt Q9NWZ3).
T1 sequence (Q9NWZ3 1-460): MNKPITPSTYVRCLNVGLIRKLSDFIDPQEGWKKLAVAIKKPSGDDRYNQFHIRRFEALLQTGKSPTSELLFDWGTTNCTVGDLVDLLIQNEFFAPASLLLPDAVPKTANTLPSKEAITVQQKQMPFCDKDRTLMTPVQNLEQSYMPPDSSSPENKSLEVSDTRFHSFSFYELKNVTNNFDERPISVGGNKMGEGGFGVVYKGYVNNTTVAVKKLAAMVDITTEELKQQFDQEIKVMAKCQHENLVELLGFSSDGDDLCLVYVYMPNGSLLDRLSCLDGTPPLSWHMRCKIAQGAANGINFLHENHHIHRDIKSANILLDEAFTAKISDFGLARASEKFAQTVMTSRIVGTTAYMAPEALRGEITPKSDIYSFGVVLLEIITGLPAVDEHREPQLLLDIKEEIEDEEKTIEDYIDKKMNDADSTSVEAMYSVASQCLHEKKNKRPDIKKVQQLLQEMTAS
The experiment in a line: IRAK4 MSD Degradation in OCI-LY10. The following applies: OCI-LY10 cells, 4 hrs, Meso Scale Discovery. In kind it is cell-based. On the set-up: endogenous in cells; host or cells: OCI-LY10. The method, then:
Degradation of IRAK4 in OCI-LY10 was quantitatively measured using Meso Scale Discovery technology. OCI-LY10 cells were seeded in 96-well plates (Corning 3799) with a density of 300,000 cells per well in 100 μL fresh media. Compounds were then added to the assay plates with a final top concentration of 1 to 10 μM in a 1:3 dilution series with total of 8 doses. The assay plates were then incubated for 4 to 24 hours at 37° C. under 5% CO2. The assay plates were then centrifuged for 5 minutes and the cell pellets were treated with 100 μL/well RIPA lysis buffer (Boston BioProducts BP-115D) with proteinase inhibitors. To prepare MSD assay plates (Meso Scale Discovery Catalog number L15XA-3), the plates were coated with […] capture antibody (mouse Anti-IRAK4 antibody [2H9], ab119942) in PBS, at 40 μL/well. […] The assay plates were then incubated at room temperature for 1 hour, washed 3 times with 150 μL/well TBST buffer, and 150 μL/well MSD reading buffer (Meso Scale Discovery catalog number R92TC-2) was added. The plates were then analyzed by a MSD reader (Meso Scale Discovery, Model Quick Plex SQ 120). The data was then analyzed by software Prism 7.0 from GraphPad and the dose-depended IRAK4 degradation were fit using a three-parameter logistic equation to calculate DC50. […]

Assay [2] deals with T1, IRAK4. Put plainly: Human Whole Blood IRAK4 Degradation (whole blood monocyte, flow cytometry). As to conditions: human whole blood monocytes, read-out: IRAK4 degradation in whole blood: Average external Abs DC50. The assay is classed as cell-based. On the set-up: Whole blood was collected in heparinized tubes and plated on the same day as draw (day 0); from tissue; host or cells: human whole blood (CD14-positive monocytes gated by flow cytometry). On the procedure: Whole blood was collected in heparinized tubes and plated on the same day as draw (day 0). Whole blood was aliquoted into deep well plates. Compound plates were prepared and a 10 point, 5-fold dilution was performed with a final DMSO concentration of 0.1%. Compound was added to whole blood deep well plate, sealed and incubated at 37° C., 5% C02 for 20 hours (for 4 hour treatment, compounds were prepared and added the following day). Following the treatment incubation period (day 1), BD lyse fix (BD#558049) was added to the whole blood plate, placed on plate shaker for 30 seconds and incubated for 10 mins at room temperature. Whole blood was then spun down and washed two times with PBS/0.5% BSA, aspirated to pellet and placed into −80° C. freezer until further processing for flow. On the flow run day, whole blood plates were thawed and samples were transferred to PCR plates. The pre-perm staining cocktail (CD3 Ax488/CD8 BUV805/CD14 BUV395/CD16/56 BV711/CD19 BV785) was added to samples and incubated for 30 minutes at room temperature. Samples were washed two times and permeabilized with Methanol for 10 minutes at 4° C. […] Twenty hour dose curves were calculated using a 4 parameter logistic regression curve fit, no constraints (Top doses were removed if hook effects were observed and the bottom was constrained to 0). […]

By DC50 is commonly meant the concentration at which degradation of the target reaches its halfway point.

Consider `CN(C[C@H]1CC[C@H](n2cc(NC(=O)c3cnn4cccnc34)c(C(F)F)n2)CC1)C1CCN(c2cccc3c2n(C)c(=O)n3C2CCC(=O)NC2=O)CC1` (some centres unmarked) [I-1], for which the DC50 on IRAK4 [1] and at IRAK4 [2] was under 50 nM each time.

The values are drawn from patent US20230122219A1, “IRAK DEGRADERS AND USES THEREOF” (Kymera Therapeutics, Inc., priority 2020, published 2023).
